These results are taken from patent US9115147B2, “Tricyclic derivatives and their pharmaceutical use and compositions” (Cephalon, Inc., priority 2009, dated 2015).

T1 sequence (P50406 whole entry): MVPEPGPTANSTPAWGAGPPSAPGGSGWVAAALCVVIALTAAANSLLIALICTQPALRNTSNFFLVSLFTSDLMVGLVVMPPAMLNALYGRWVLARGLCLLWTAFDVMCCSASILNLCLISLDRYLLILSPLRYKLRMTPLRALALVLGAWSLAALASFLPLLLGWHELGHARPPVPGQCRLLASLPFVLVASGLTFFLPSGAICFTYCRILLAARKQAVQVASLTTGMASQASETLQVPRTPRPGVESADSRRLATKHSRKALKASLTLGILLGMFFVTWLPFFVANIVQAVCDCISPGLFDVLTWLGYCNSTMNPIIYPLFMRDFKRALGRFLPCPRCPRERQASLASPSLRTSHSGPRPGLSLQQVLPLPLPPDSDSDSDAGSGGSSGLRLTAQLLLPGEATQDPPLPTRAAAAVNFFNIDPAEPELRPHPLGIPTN

The first experiment has as its target T1, human 5-HT6 receptor (Homo sapiens, UniProt P50406).
T1 construct: host or cells: CHO-K1 cells, stably transfected; membranes prepared in house
Nature of the experiment: Human 5-HT6 Receptor Binding Assay ([3H]LSD, scintillation beads). To be noted: actual data; membranes of CHO-K1 cells with recombinant human 5-HT6 receptor, 4 nM [3H]LSD; read-out: Human 5-HT6 Ki. The procedure:
Human 5-HT6 Receptor Binding Assay
Membranes were prepared from CHO-K1 cells stably transfected with the human 5-HT6 receptor (Euroscreen; ES-316-C). The cells were grown in Gibco Advanced DMEM-F12 (Cat#12634010) containing 2% dialyzed FBS (Hyclone Cat#SH30079.03). The cells were harvested in phosphate buffered saline (PBS) containing 0.1 mM EDTA and pelleted by centrifugation (1000×g), the supernatant was discarded and the pellets were stored at −80° C. prior to membrane preparation. Membranes were prepared as previously described (J Bio Chem. 1992, 267 (14) 9844-51). Briefly, frozen cell pellet was resuspended in a lysis buffer containing 5 mM Tris-HCl (pH 7.5), 5 mM EDTA and 1 complete EDTA-free protease inhibitor tablet (Roche Applied Science, Indianapolis, Ind.) per 50 mL buffer, and homogenized with a tissue homogenizer. The cell lysate was then centrifuged at 40,000×g for 30 min at 4° C. to collect the membranes. The membrane pellets were washed in membrane buffer (50 mM Tris-HCl (pH 7.5), 0.6 mM EDTA, 5 mM MgCl2, 1 complete EDTA-free protease inhibitor tablet per 50 mL buffer) using a tissue homogenizer. The membranes were centrifuged at 40,000×g for 30 min at 4° C. and the pellets were resuspended in membrane buffer containing 250 mM sucrose, and protein concentration was determined using the Coomassie Plus kit (Pierce Biotechnology, Rockford, Ill.).
Membranes prepared from cells expressing recombinant human 5-HT6 receptor (h5-HT6) were resuspended in assay buffer containing 50 mM Tris HCl, (pH7.4), 4 mM CaCl2, 10 μg/mL saponin, and 0.1% (w/v) ascorbic acid. Membranes were preincubated using 1.75 μg membrane protein and 0.25 mg FlashBlue scintillation beads (PerkinElmer catalogue #FB001) per well at 4° C. for 30 min. […] Test compounds or assay controls for total and non-specific binding were diluted in DMSO as 100× solutions and serially diluted by half log concentrations on a Perkin Elmer JANUS Automated Workstation. Serotonin (10 μM final concentration) was used to determine non-specific binding in the assay. Plates were read using the Microbeta Trilux 1450 LSC and luminescence counter. Data were analyzed by nonlinear […] using the dose-response equation (variable slope) to calculate IC50 in XLfit4 (ID Business Solutions Inc.): y=(Bottom+((Top−Bottom)/(1+((IC50/x)^Hill slope))))
Ki value was then calculated according to the Cheng-Prusoff method using the equation below (Cheng and Prusoff, 1973): Ki, app=IC50/(1+([radioligand]/Kd))
As to `CC(C)N1CCC2c3ccc(S(=O)(=O)c4ccccc4)cc3OCC21` (single isomer, unassigned) [Example 57, 7-(phenylsulfonyl)-3-(propan-2-yl)-1,2,3,3a,4,9b-hexahydrochromeno[3,4-b]pyrrole], the Ki is 504 nM.

Still in this experiment, the particulars now being: membranes of CHO-K1 cells with recombinant human 5-HT6 receptor, 4 nM [3H]LSD, Cheng-Prusoff; read-out: Human 5-HT6 Ki app.
On to `O=S(=O)(c1cncc(C(F)(F)F)c1)c1ccc2c(c1)OCC1NCCC21` (single isomer, unassigned) [Example 52, 7-{[5-(trifluoromethyl)pyridin-3-yl]sulfonyl}-1,2,3,3a,4,9b-hexahydrochromeno[3,4-b]pyrrole], for which the Ki fell in the range of 500 to 1000 nM. Take `O=S(=O)(c1ccccc1)c1ccc2c(c1)C1CCNC1CO2` (single isomer, unassigned) [Example 53, 8-(phenylsulfonyl)-1,2,3,3a,4,9b-hexahydrochromeno[3,4-b]pyrrole]: the Ki is under 500 nM. For `O=S(=O)(c1ccccc1)c1ccc2c(c1)C1CCNC1CO2` (single isomer, unassigned) [Example 54, 8-(phenylsulfonyl)-1,2,3,3a,4,9b-hexahydrochromeno[3,4-b]pyrrole], the Ki was under 500 nM. On to `O=S(=O)(c1ccccc1)c1ccc2c(c1)OCC1NCCC21` (single isomer, unassigned) [Example 55, 7-(phenylsulfonyl)-1,2,3,3a,4,9b-hexahydrochromeno[3,4-b]pyrrole], for which the Ki was under 500 nM. On to `CC(C)N1CCC2c3ccc(S(=O)(=O)c4ccccc4)cc3OCC21` (single isomer, unassigned) [Example 57, 7-(phenylsulfonyl)-3-(propan-2-yl)-1,2,3,3a,4,9b-hexahydrochromeno[3,4-b]pyrrole], for which the Ki was in the range of 500 to 1000 nM. `CC(C)N1CCC2c3ccc(S(=O)(=O)c4ccccc4)cc3OCC21` (single isomer, unassigned) [Example 58, 7-(phenylsulfonyl)-3-(propan-2-yl)-1,2,3,3a,4,9b-hexahydrochromeno[3,4-b]pyrrole]: the Ki is over 1000 nM.

For `O=S(=O)(c1ccccc1)c1ccc2c(c1)OCC1C2CCN1C1CCC1` (single isomer, unassigned) [Example 59, 3-cyclobutyl-7-(phenylsulfonyl)-1,2,3,3a,4,9b-hexahydrochromeno[3,4-b]pyrrole], the Ki was in the range of 500 to 1000 nM. Consider `O=S(=O)(c1ccccc1)c1ccc2c(c1)OCC1C2CCN1C1CCC1` (single isomer, unassigned) [Example 60, 3-cyclobutyl-7-(phenylsulfonyl)-1,2,3,3a,4,9b-hexahydrochromeno[3,4-b]pyrrole], for which the Ki is over 1000 nM. `O=S(=O)(c1ccccc1)c1ccc2c(c1)OCC1C2CCN1C1CCCC1` (single isomer, unassigned) [Example 61, 3-cyclopentyl-7-(phenylsulfonyl)-1,2,3,3a,4,9b-hexahydrochromeno[3,4-b]pyrrole]: the Ki was under 500 nM.

Consider `O=S(=O)(c1ccccc1)c1ccc2c(c1)OCC1C2CCN1C1CCCC1` (single isomer, unassigned) [Example 62, 3-cyclopentyl-7-(phenylsulfonyl)-1,2,3,3a,4,9b-hexahydrochromeno[3,4-b]pyrrole], for which the Ki is over 1000 nM. Still for that read-out and setting: the same measure for `O=S(=O)(c1ccccc1)c1ccc2c(c1)OCC1C2CCN1C1CCCCC1` (single isomer, unassigned) [Example 63, 3-cyclohexyl-7-(phenylsulfonyl)-1,2,3,3a,4,9b-hexahydrochromeno[3,4-b]pyrrole]: under 500 nM. On to `O=S(=O)(c1ccccc1)c1ccc2c(c1)OCC1C2CCN1C1CCCCC1` (single isomer, unassigned) [Example 64, 3-cyclohexyl-7-(phenylsulfonyl)-1,2,3,3a,4,9b-hexahydrochromeno[3,4-b]pyrrole], for which the Ki was over 1000 nM. Same read-out and setting: the same measure for `O=S(=O)(c1ccccc1)c1ccc2c(c1)OCC1C2CCN1C1CCOC1` (single isomer, unassigned) [Example 65, 7-(phenylsulfonyl)-3-(tetrahydrofuran-3-yl)-1,2,3,3a,4,9b-hexahydrochromeno[3,4-b]pyrrole]: 500 to 1000 nM; for `O=S(=O)(c1ccccc1)c1ccc2c(c1)OCC1C2CCN1C1CCOC1` (single isomer, unassigned) [Example 66, 7-(phenylsulfonyl)-3-(tetrahydrofuran-3-yl)-1,2,3,3a,4,9b-hexahydrochromeno[3,4-b]pyrrole]: over 1000 nM; for `O=S(=O)(c1ccccc1)c1ccc2c(c1)OCC1C2CCN1CC(F)F` (single isomer, unassigned) [Example 67, 3-(2,2-difluoroethyl)-7-(phenylsulfonyl)-1,2,3,3a,4,9b-hexahydrochromeno[3,4-b]pyrrole]: under 500 nM. On to `O=S(=O)(c1ccccc1)c1ccc2c(c1)OCC1C2CCN1C1CCOCC1` (single isomer, unassigned) [Example 68, 7-(phenylsulfonyl)-3-(tetrahydro-2H-pyran-4-yl)-1,2,3,3a,4,9b-hexahydrochromeno[3,4-b]pyrrole], for which the Ki is under 500 nM. Still for that read-out and setting: as for `O=S(=O)(c1ccccc1)c1ccc2c(c1)OCC1C2CCN1C1CCOCC1` (single isomer, unassigned) [Example 69, 7-(phenylsulfonyl)-3-(tetrahydro-2H-pyran-4-yl)-1,2,3,3a,4,9b-hexahydrochromeno[3,4-b]pyrrole], the figure is over 1000 nM. The same measure, in the same setting: the same measure for `O=S(=O)(c1ccccc1)c1ccc2c(c1)OCC1C2CCN1CC1CCCC1` (single isomer, unassigned) [Example 70, 3-(cyclopentylmethyl)-7-(phenylsulfonyl)-1,2,3,3a,4,9b-hexahydrochromeno[3,4-b]pyrrole]: under 500 nM; for `O=S(=O)(c1ccccc1)c1ccc2c(c1)OCC1C2CCN1CC1CCCC1` (single isomer, unassigned) [Example 71, 3-(cyclopentylmethyl)-7-(phenylsulfonyl)-1,2,3,3a,4,9b-hexahydrochromeno[3,4-b]pyrrole]: over 1000 nM; for `O=S(=O)(c1ccccc1)c1ccc2c(c1)OCC1C2CCN1CC1CC1` (single isomer, unassigned) [Example 72, 3-(cyclopropylmethyl)-7-(phenylsulfonyl)-1,2,3,3a,4,9b-hexahydrochromeno[3,4-b]pyrrole]: over 1000 nM. On the same count and under the same terms, the same measure for `O=S(=O)(c1cncc(Br)c1)c1ccc2c(c1)OCC1C2CCN1C1CCC1` (single isomer, unassigned) [Example 73, 7-[(5-bromopyridin-3-yl)sulfonyl]-3-cyclobutyl-1,2,3,3a,4,9b-hexahydrochromeno[3,4-b]pyrrole]: 500 to 1000 nM. Regarding `COc1cncc(S(=O)(=O)c2ccc3c(c2)OCC2C3CCN2C2CCC2)c1` (single isomer, unassigned) [Example 74, 3-cyclobutyl-7-[(5-methoxypyridin-3-yl)sulfonyl]-1,2,3,3a,4,9b-hexahydrochromeno[3,4-b]pyrrole], the Ki is over 1000 nM. `O=S(=O)(c1cncc(F)c1)c1ccc2c(c1)OCC1C2CCN1C1CCC1` (single isomer, unassigned) [Example 75, 3-cyclobutyl-7-[(5-fluoropyridin-3-yl)sulfonyl]-1,2,3,3a,4,9b-hexahydrochromeno[3,4-b]pyrrole]: the Ki is over 1000 nM.

With `O=S(=O)(c1cncc(Cl)c1)c1ccc2c(c1)OCC1C2CCN1C1CCC1` (single isomer, unassigned) [Example 76, 7-[(5-chloropyridin-3-yl)sulfonyl]-3-cyclobutyl-1,2,3,3a,4,9b-hexahydrochromeno[3,4-b]pyrrole], the Ki is under 500 nM.

Regarding `O=S(=O)(c1ccccc1)c1ccc2c(c1)OCC1C2CCN1CC(F)F` (single isomer, unassigned) [Example 77, 3-(2,2-difluoroethyl)-7-(phenylsulfonyl)-1,2,3,3a,4,9b-hexahydrochromeno[3,4-b]pyrrole], the Ki was over 1000 nM.
